# Reference: patent US20260198495A1, “BINARY INSECTICIDE COMPOSITION AND USE THEREOF” (SHENYANG SINOCHEM AGROCHEMICALS R & D CO., LTD., priority 2022, published 2026)
# Assays:
# Assay type in all cases: in vivo
# [1] = tested on: adult Tetranychus cinnabarinus (Boisduval); experiment: Joint toxicity of I-72 + spirodiclofen, potted-seedling spraying, Example 25, Table 25; conditions: A = compound I-72, B = spirodiclofen, 72 hours
# Experimental: Test target: adult Tetranychus cinnabarinus (Boisduval), a sensitive strain reared indoors.
# (§1) Preparation of the pesticide solution: according to different test requirements, the test samples were accurately weighed respectively with an electronic analytical balance. The technical pesticides were dissolved in acetone, and then diluted with 0.1% Tween 80 water into a series of pesticide solutions with a certain concentration gradient according to the experimental design dosage.
# Experimental method: the activity of the mixture against the adult Tetranychus cinnabarinus (Boisduval) was determined by adopting the potted-seedling spraying method. First, the adult Tetranychus cinnabarinus of uniform size were transferred onto the leaves of kidney bean seedlings at the stage when the first pair of true leaves was fully expanded. After the adult mites had stabilized, the base number was counted. Then, the uniform spraying was performed with the pesticide solution in the order from low to high dose according to the experimental design, with 1.5 mL for each seedling and 3 replicates for each treatment. […]
# (§2) The treated test materials were placed in an observation room, and the temperature, humidity and illumination of the observation room could be adjusted as needed. […] Then, the co-toxicity coefficient of each ratio was calculated using the Sun Y-P method to evaluate the mixing effect, as in Example 1.
# [2] = tested on: Bemisia tabaci (Gennadius) nymphs; experiment: Joint toxicity of I-72 + spiromesifen, Example 27, Table 27; conditions: A = compound I-72, B = spiromesifen; cotton leaf-disk spraying; 96 hours
# Experimental: Test target: Bemisia tabaci (Gennadius) nymphs, a sensitive strain reared indoors.
# as §1
# (§3) Experimental method: first, cotton leaves with neat and consistent Bemisia tabaci (Gennadius) nymphs were selected and made into leaf disks, with about 20 insects on each leaf disk. Then, they were evenly sprayed with the pesticide solution in the order from low dosage to high dosage according to the experimental design, with 1.5 mL for each leaf and 3 replicates for each treatment. In addition, a blank control was set up.
# as §2, with “needed. The number of dead and live insects was investigated 96 hours later.” for “needed.”, “effect (the same” for “effect,”, “1).” for “1.”
# [3] = tested on: 2nd-instar larvae of Chilo suppressalis (Walker); experiment: Joint toxicity of I-72 + abamectin, rice stalk spraying, Example 7, Table 7; conditions: resistant 2nd-instar larvae, 72 h, A = compound I-72, B = abamectin
# Experimental: Test target: 2nd-instar larvae of Chilo suppressalis (Walker). The insect source was collected from Nanchang, Jiangxi Province, and it is the 11th generation continuously cultured indoors, with a relatively high resistance level to amide pesticides such as chlorantraniliprole.
# (§4) Test conditions: temperature: 25-27° C., humidity: RH 60%, and illumination: L:D=14:10
# (§5) Preparation method: the test pesticides were accurately weighed respectively with an electronic analytical balance. After the two technical materials were respectively added into an appropriate amount of solvent and completely dissolved, the stock solution of the required concentration was prepared with water containing 0.1% Tween 80. The stock solutions of the two active ingredients were mixed in a certain ratio to prepare a mixed solution, which was then diluted respectively into a series of pesticide solutions with a certain concentration gradient according to the experimental design dosage.
# Experimental method: the spraying method was adopted. […] The corrected mortality rate was calculated using the Abbott's formula, and the DPS data processing software was used for statistical analysis to calculate the toxicities (LC50 values) of the single test pesticides and the mixtures under the test ratios. […]
# [4] = tested on: adult Bemisia tabaci (Gennadius); experiment: Joint toxicity of I-72 + abamectin, seedling spraying, Example 13, Table 13; conditions: adults, kidney bean seedling spraying, 72 h; A = compound I-72, B = abamectin
# Excerpt: Test subject: adult Bemisia tabaci (Gennadius), a sensitive strain reared indoors.
# Experimental method: the spraying method was adopted. The kidney bean seedlings cultivated in the greenhouse were selected and evenly sprayed with the pesticide solution in the order from low dosage to high dosage according to the experimental design. After natural air-drying in the shade, a self-made glass cover was put on, and the test insects were introduced, with 20-30 insects for each treatment and 3 replicates. In addition, a blank control was set up. The number of dead and live insects was investigated 72 hours later. The corrected mortality rate was calculated using the Abbott's formula, and the DPS data processing software was used for statistical analysis to calculate the toxicities (LC50 values) of the single test pesticides and the mixtures under the test ratios.
# The test conditions, the preparation of the pesticide solution and the evaluation method were the same as those in Example 1.
# The test subject, the test method, the test conditions, the preparation of the pesticide solution and the evaluation method were the same as those in Example 12.
# [5] = tested on: 3rd-instar larvae of Pyrausta nubilalis Hubern; experiment: Synergism assay (Bliss) of I-72 + abamectin, spinosad, spinetoram, emamectin benzoate, Example 6, Table 6; conditions: 72 h
# Experimental: Test subject: 3rd-instar larvae of Pyrausta nubilalis Hubern, a sensitive strain reared indoors.
# Test conditions: temperature: 24-26° C., humidity: RH 60%, and illumination: L:D=14:10
# as §5
# Experimental method: the artificial diet-pesticide film method was adopted. A standard clean 24-well culture plate was selected. 1 ml of artificial diet was added to each well. After the diet cooled and solidified, a quantitative amount of a pesticide solution was added to the culture plate using a continuous sampler, and then it was air-dried naturally in the shade. The standard test insects were introduced, with 1 insect in each well, a total of 48 insects. The treated test insects were placed in an observation room under certain conditions. The reaction of the test insects was regularly observed, and the number of dead and live insects was investigated 72 h later.
# The evaluation method adopted was the Bliss method. This method is applicable to the qualitative screening of insecticidal compositions. According to the concept of independent joint action he proposed, Bliss believes that the theoretical mortality rate P when insecticides are used in combination can be calculated by the following formula: […]
# Pm is the mortality rate (%) of the target when the first active ingredient is at a concentration of m; and Pn is the mortality rate (%) of the target when the second active ingredient is at a concentration of n.
# If the actual mortality rate of the target after the two active ingredients are mixed at a certain concentration is greater than theoretical mortality rate P, it is determined that the two active ingredients have a synergistic effect when used in combination at the set concentration, and otherwise, they have an antagonistic effect.
# Pyrrhalta aenescens = experiment: Joint toxicity of I-72 + fenobucarb, insect-dipping, Example 24, Table 24; conditions: 24 h
# Experimental: Test target: Pyrrhalta aenescens, a strain reared indoors.
# Experimental method: the insect-dipping method was adopted. Pyrrhalta aenescens of the same size were selected, put into an insect-dipping cage, and evenly […] the pesticide solution in the order from low dosage to high dosage according to the experimental design, with dipping for 10 s for each treatment. They were placed in a 9-cm-diameter Petri dish with filter paper. After natural air-drying in the shade, feed was added, with 3 replicates for each treatment. In addition, a blank control was set up.
# The treated test materials were placed in an observation room. The total number of test insects and the number of dead insects were investigated 24 hours later. The temperature, humidity and illumination of the observation room could be adjusted as needed. The test conditions, the preparation of the pesticide solution and the evaluation method were the same as those in Example 1.
# adult Phyllotreta spp. = experiment: Joint toxicity of I-72 + organophosphorus insecticides, cabbage seedling spraying, Example 19, Table 19; conditions: 72 h
# Experimental: Test target: adult Phyllotreta spp., a sensitive strain reared indoors.
# as §1
# Experimental method: first, fresh cabbage seedlings cultivated in the greenhouse were selected and evenly sprayed with the pesticide solution in the order from low dosage to high dosage according to the experimental design. After natural air-drying in the shade, they were covered with a glass cover, and uniform and healthy test insects were introduced, with 10 insects for each treatment and 3 replicates for each treatment. In addition, a blank control was set up.
# (§6) The treated test materials were placed in an observation room, and the temperature, humidity and illumination of the observation room could be adjusted as needed. The number of dead and live insects was investigated 72 hours later. The corrected mortality rate was calculated using the Abbott's formula, and statistical analysis was performed with the DPS data processing software to obtain the toxicity regression equation, LC50 value and 95% confidence limit of each single test pesticide and each mixture of different ratios. Then, the co-toxicity coefficient of each ratio was calculated using the Sun Y-P method to evaluate the mixing effect (the same as in Example 1).
# [6] = tested on: 3rd-instar larvae of Chilo suppressalis (Walker); experiment: Joint toxicity of I-72 + organophosphorus insecticides, rice seedling dipping, Example 15, Table 15; conditions: 48 h
# Experimental: Test target: 3rd-instar larvae of Chilo suppressalis (Walker), a sensitive strain reared indoors.
# as §1
# (§7) Experimental method: first, tender and fresh rice seedlings were selected and dipped in the prepared pesticide solution for 10 s in the order from low dosage to high dosage according to the experimental design. After natural air-drying in the shade, they were cut into small sections of 5 cm, placed in a 9-cm-diameter Petri dish with filter paper, and uniform and healthy test insects were introduced, with 10 insects for each treatment and 3 replicates for each treatment. In addition, a blank control was set up.
# as §6, with “48” for “72”
# [7] = tested on: 3rd-instar larvae of Plutella xylostella; experiment: Joint toxicity of I-72 + chlorpyrifos, leaf-disk dipping, Example 16, Table 16; conditions: in Brassica oleracea, 72 h
# Experimental: Test target: 3rd-instar larvae of Plutella xylostella.
# as §1
# as §7, with “first,” for “first, tender and”, “cabbage leaves cultivated in the greenhouse” for “rice seedlings”, “selected. The cabbage leaves were made into circular leaf disks with a diameter of 3 cm using a puncher” for “selected”, “were” for “were cut into small sections of 5 cm,”
# as §2, with “effect (the same” for “effect,”, “1).” for “1.”
# [8] = tested on: Frankliniella occidentalis Pergande; experiment: Joint toxicity of I-72 + organophosphorus insecticides, leaf dipping, Example 14, Table 14; conditions: in Phaseolus vulgaris, foliar, 48 h
# Excerpt: Test target: Frankliniella occidentalis Pergande, a sensitive strain reared indoors.
# Experimental method: first, kidney bean leaves were selected and dipped in the prepared pesticide solution for 10 s in the order from low dosage to high dosage according to the experimental design. After natural air-drying in the shade, they were placed in a 9-cm-diameter Petri dish with filter paper, and uniform and healthy test insects were introduced, with about 20 insects for each treatment and 3 replicates for each treatment. In addition, a blank control was set up.
# The treated test materials were placed in an observation room, and the temperature, humidity and illumination of the observation room could be adjusted as needed. The number of dead and live insects was investigated 48 hours later.
# [9] = tested on: Bemisia tabaci (Gennadius) nymphs; experiment: Joint toxicity of I-72 + organophosphorus insecticides, cotton leaf-disk spraying, Example 18, Table 18; conditions: 96 h
# Experimental: Test target: Bemisia tabaci (Gennadius) nymphs.
# as §1, §3
# as §6, with “96” for “72”
# [10] = tested on: 3rd-instar larvae of Ostrinia furnacalis Guenee; experiment: Joint toxicity of I-72 + organophosphorus insecticides, corn stalk dipping, Example 21, Table 21; conditions: 48 h
# Experimental: Test target: 3rd-instar larvae of Ostrinia furnacalis Guenee, a sensitive strain reared indoors.
# as §1
# as §7, with “first, fresh” for “first,”, “corn stalks cultivated in the greenhouse” for “and fresh rice seedlings”, “selected, cut into small sections of 3 cm,” for “selected”, “were” for “were cut into small sections of 5 cm,”
# as §6, with “48” for “72”
# [11] = tested on: Aphis gossypii Glover nymphs; experiment: Joint toxicity of I-72 + organophosphorus insecticides, cotton leaf spraying, Example 17, Table 17; conditions: 48 h
# Experimental: Test target: Aphis gossypii Glover nymphs, a sensitive strain reared indoors.
# as §1
# as §3, with “uniform” for “neat”, “Aphis gossypii” for “Bemisia tabaci (Gennadius) nymphs”, “selected,” for “selected and made into leaf disks,”, “leaf.” for “leaf disk.”
# as §6, with “48” for “72”
# [12] = tested on: 3rd-instar larvae of Hyphantria cunea; experiment: Joint toxicity of I-72 + organophosphorus insecticides, poplar leaf dipping, Example 20, Table 20; conditions: foliar, 72 h
# Excerpt: Test target: 3rd-instar larvae of Hyphantria cunea, a sensitive strain reared indoors.
# Experimental method: first, fresh and tender poplar leaves were selected, cut into small sections of 5 cm, and dipped in the prepared pesticide solution for 10 s in the order from low dosage to high dosage according to the experimental design. After natural air-drying in the shade, they were placed in a 9-cm-diameter Petri dish with filter paper, and uniform and healthy test insects were introduced, with 10 insects for each treatment and 3 replicates for each treatment. In addition, a blank control was set up.
# [13] = tested on: 2nd-instar nymphs of Frankliniella occidentalis Pergande; experiment: Joint toxicity of I-72 + carbosulfan, leaf spraying, Example 22, Table 22; conditions: in Phaseolus vulgaris, 48 h
# Experimental: Test subject: 2nd-instar nymphs of Frankliniella occidentalis Pergande, a sensitive strain reared indoors.
# as §1, with “samples in Table 1” for “samples”
# as §4
# Experimental method: the spraying method was adopted. The kidney bean leaves cultivated in the greenhouse were selected, and the petioles were wrapped with moist degreased cotton and sealing film. They were evenly sprayed with the pesticide solution in the order from low dosage to high dosage according to the experimental design, placed in a 6-cm-diameter Petri dish with filter paper. After natural air-drying in the shade, the test insects were introduced, with 20 insects for each treatment and 3 replicates. In addition, a blank control was set up. […] The corrected mortality rate was calculated using the Abbott's formula, and the DPS data processing software was used for statistical analysis to calculate the toxicities (LC50 values) of the single test pesticides and the mixtures under the test ratios. […]
molecule,measurement,setting,value
CCC(C)(C)C(=O)OC1=C(c2ccc(Cl)cc2Cl)C(=O)OC12CCCCC2 [spirodiclofen],LC50,[1],14.5033 µg/mL
Cc1cc(C)c(C2=C(OC(=O)CC(C)(C)C)C3(CCCC3)OC2=O)c(C)c1 [spiromesifen],LC50,[2],10.6291 µg/mL
abamectin,LC50,[3],8.0355 µg/mL
same,LC50,[4],2.2263 µg/mL
same,Mortality rate (%),[5]; single agent 0.1 mg/L,10.42%
same,Mortality rate (%),[5]; single agent 1 mg/L,58.33%
same,Mortality rate (%),[5]; single agent 2 mg/L,75.00%
same,Mortality rate (%),[5]; single agent 5 mg/L,85.42%
CCC(C)c1ccccc1OC(=O)NC (stereo not drawn) [fenobucarb],LC50,Pyrrhalta aenescens,37.2 µg/mL
CCOP(=S)(OCC)Oc1nc(Cl)c(Cl)cc1Cl [chlorpyrifos],LC50,adult Phyllotreta spp.,40.4 µg/mL
same,LC50,[6],1.96 µg/mL
same,LC50,[7],13.7 µg/mL
same,LC50,[8],4.6 µg/mL
same,LC50,[9],12.1 µg/mL
same,LC50,[10],5.18 µg/mL
same,LC50,[11],4.16 µg/mL
same,LC50,[12],5.24 µg/mL
"CCCCN(CCCC)SN(C)C(=O)Oc1cccc2c1OC(C)(C)C2 [carbosulfan, reference compound]",LC50,[13],43.2 µg/mL
